Series [1] deals with T1, ERα/SRC-3 coactivator interaction (Homo sapiens, UniProt P03372, C381S/C530S).
T1 sequence (P03372 311-547 C381S/C530S limits assumed): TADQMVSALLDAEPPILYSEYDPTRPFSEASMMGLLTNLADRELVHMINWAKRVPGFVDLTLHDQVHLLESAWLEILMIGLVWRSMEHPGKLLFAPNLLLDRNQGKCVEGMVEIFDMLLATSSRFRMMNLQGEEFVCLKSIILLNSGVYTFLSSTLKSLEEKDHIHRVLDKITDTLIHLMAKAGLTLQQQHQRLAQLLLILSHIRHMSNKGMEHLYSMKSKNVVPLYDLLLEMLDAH
Kind of series: TR-FRET CBI assay, ERα-LBD / SRC-3-NRD. The class given is binding. The note with it: 1 μM estradiol, fluorescein-SRC-3-NRD 50 nM; for Ki: TR-FRET Ki ERα. (Time-resolved FRET reads energy transfer from a long-lived donor to a nearby acceptor.)

Series [2] relates to HEC-1 cells. As to the kind of experiment: CellTiter 96 AQueous One Solution Cell Proliferation Assay. The class given is cell-based. The note with it: doses up to 20 μM.
In series [3] the target is ERβ/SRC-3 coactivator interaction (Homo sapiens, UniProt Q92731). Kind of series: TR-FRET CBI assay, ERβ-LBD / SRC-3-NRD. The note with it: for TR-FRET Ki ERβ: estradiol present, fluorescein-SRC-3-NRD. The class given is binding.
Series [4] has as its target ERβ (Homo sapiens, UniProt Q92731). As to the kind of experiment: Preliminary cell-based reporter gene systems, ERβ. As to conditions: preliminary studies. A general note: A reporter such as luciferase makes a cellular process visible.
Series [5] deals with ERα coactivator binding. As to conditions: read-out: Ki by fluorescence polarization assay; FP assay; cited from earlier work.
In series [6] the target is T2, ERβ ligand-binding domain (site-specifically labeled terbium/streptavidin-biotin/ER-LBD construct) (site-specifically labeled with biotin; bound to streptavidin-terbium in the assay).
T2 chain: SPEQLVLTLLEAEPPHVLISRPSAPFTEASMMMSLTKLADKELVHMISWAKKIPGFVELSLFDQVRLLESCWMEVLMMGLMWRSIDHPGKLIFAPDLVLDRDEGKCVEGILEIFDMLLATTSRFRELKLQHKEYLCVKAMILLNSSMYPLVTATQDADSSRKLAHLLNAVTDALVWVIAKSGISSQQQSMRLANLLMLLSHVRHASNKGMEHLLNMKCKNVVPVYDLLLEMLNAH
Kind of series: FRET or BRET.

The text below walks through data of article PMC2680390 (Journal of medicinal chemistry, 2008).

The Ki is the equilibrium dissociation constant of an inhibitor or competing ligand from its target.

Sequence of ERβ (Q92731 whole entry): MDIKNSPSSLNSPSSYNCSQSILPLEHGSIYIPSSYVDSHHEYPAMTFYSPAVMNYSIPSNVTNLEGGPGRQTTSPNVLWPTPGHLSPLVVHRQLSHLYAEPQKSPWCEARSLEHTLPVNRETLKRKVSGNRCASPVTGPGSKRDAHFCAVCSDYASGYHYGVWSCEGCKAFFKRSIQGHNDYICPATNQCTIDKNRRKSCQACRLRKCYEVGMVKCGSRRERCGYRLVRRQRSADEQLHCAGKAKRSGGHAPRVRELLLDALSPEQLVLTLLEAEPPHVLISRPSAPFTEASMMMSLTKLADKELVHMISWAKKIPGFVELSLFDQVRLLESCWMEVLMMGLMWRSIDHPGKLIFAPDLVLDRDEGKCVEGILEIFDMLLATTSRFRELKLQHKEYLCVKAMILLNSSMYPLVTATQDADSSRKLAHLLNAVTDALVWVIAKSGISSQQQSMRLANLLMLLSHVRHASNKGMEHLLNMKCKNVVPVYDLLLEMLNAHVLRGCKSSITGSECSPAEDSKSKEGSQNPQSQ

Take `CC(C)CSc1cc(SCC(C)C)nc(SCC(C)C)n1` [Compound 25e, 2,4,6-Tris-isobutylsulfanyl-pyrimidine]: the Ki in series [1] came to 120 µM.

On to `CC(C)CNc1cc(CCc2ccccc2)nc(N(C)CC(C)C)n1` [Compound 32, N^2-methyl-N^2,N^4-diisobutyl-(6-phenethyl-pyrimidin-2,4-yl)-diamine], for which, in series [1], the “TR-FRET Ki ERα” value was “inactive”.

With `CC(C)CNc1cc(NCC(C)C)nc(NCC(C)C)n1` [Compound 25a, N,N',N''-Triisobutyl-pyrimidine-2,4,6-triamine], in series [2], the Viable cell counts result is “decreased significantly only at the highest doses of compound (20 μM)”. In addition, the “TR-FRET Ki ERβ” value in series [3] was “very modest affinity for ERβ”.

With `CC(C)CCc1cc(NCC(C)C)nc(NCc2ccccc2)n1` [Compound 18b], the Viable cell counts result in series [2] is on record as “decreased significantly only at the highest doses of compound (20 μM)”.

For `CC(C)CNc1cc(CCc2ccccc2)nc(NCC(C)C)n1` [Compound 3a], the Viable cell counts result in series [2] is on record as “decreased significantly only at the highest doses of compound (20 μM)”. Moreover, the “Mechanism-based inhibition of ERβ in cell-based reporter gene systems” value (shortened to “Mechanism-based inhibition of ERβ”) in series [4] is listed as “no mechanism-based inhibition of ERβ”.

For the molecule `CC(C)CCc1cc(NCC(C)C)nc(OCC(C)C)n1` [Compound 37a, [2-Isobutoxy-6-(3-methyl-butyl)-pyrimidin-4-yl]-isobutylamine], the “TR-FRET Ki ERα” value in series [1] is on record as “None of these O- or S-containing pyrimidines showed any inhibition”. In addition, in series [2], the Viable cell counts entry is listed as “decreased significantly only at the highest doses of compound (20 μM)”.

With `CC(C)CNc1cc(/C=C/c2ccccc2)nc(NCc2ccccc2)n1` [Compound 10a, N^2-Benzyl-N^4-isobutyl-6-styryl-pyrimidine-2,4-diamine], the Viable cell counts entry in series [2] was “decreased significantly only at the highest doses of compound (20 μM)”.

With `CC(C)CNc1cc(CCc2cccc3ccccc23)nc(N(C)CC(C)C)n1` [Compound 31c], the “TR-FRET Ki ERα” value in series [1] is “inactive”.

For the molecule `CC(C)CNc1cc(/C=C/c2ccccc2)nc(NCC(C)C)n1` [Compound 2a, N,N'-diisobutyl-(6-styryl-pyrimidin-2,4-yl)-diamine], in series [3], the Ki was 242 µM and the “TR-FRET Ki ERβ” value was “very modest affinity for ERβ”.

Regarding `CC(C)CNc1cc(NCc2ccccc2)nc(NCC(C)C)n1` [Compound 27a], the inhibition constant Ki in series [1] turned out to be 7.3 µM. Besides, in series [4], the “Mechanism-based inhibition of ERβ” value was “no mechanism-based inhibition of ERβ”.

For `CC(C)CNc1ccnc(NCC(C)C)n1` [Compound 27d, 2,4-diisobutylamino-pyrimidine], in series [1], the “TR-FRET Ki ERα” value is given as “complete loss of activity” and the Ki is over 1000 µM. The Ki in series [3] was over 1000 µM.

Take `CC(C)CCc1cc(N(C)CC(C)C)nc(NCC(C)C)n1` [Compound 34a]: in series [1], the “TR-FRET Ki ERα” value is on record as “no binding is observed”.

On to `CC(C)CCc1cc(NCC(C)C)nc(S(=O)(=O)CC(C)C)n1` [Compound 39, Isobutyl-[6-(3-methyl-butyl)-2-(2-methyl-propane-1-sulfonyl)-pyrimidin-4-yl]-amine], for which the “TR-FRET Ki ERα” value in series [1] is listed as “None of these O- or S-containing pyrimidines showed any inhibition”.

On to `CC(C)CCc1cc(NCC(C)C)nc(N(C)CC(C)C)n1` [Compound 31a], for which, in series [1], the “TR-FRET Ki ERα” value is given as “activity is nearly fully restored”.

`CC(C)CNc1cc(S(=O)(=O)CC(C)C)nc(NCC(C)C)n1` [Compound 28]: in series [1], the “TR-FRET Ki ERα” value is recorded as “lack of activity”.

Take `CC(C)CNc1nc(/C=C/c2ccccc2)cc(N(Cc2ccccc2)C(=O)OC(C)(C)C)n1` [Compound 8b]: in series [1], the “TR-FRET Ki ERα” value is recorded as “no activity for ERα”. For the same molecule, the “TR-FRET Ki ERβ” value in series [3] was “very modest affinity for ERβ”.

Turning to `CC(C)CNc1cc(OCC(C)C)nc(NCC(C)C)n1` [Compound 27b], in series [1], the “TR-FRET Ki ERα” value is on record as “lack of activity”.

`CC(C)CNc1cc(Cl)nc(NCC(C)C)n1` [Compound 26, 2,4-diisobutylamino-6-chloropyrimidine]: in series [1], the “TR-FRET Ki ERα” value is recorded as “complete loss of activity” and the inhibitory constant (Ki) is over 1000 µM. In addition, the Ki in series [3] was over 1000 µM.

On to `CC(C)CCc1cc(NCC(C)C)nc(NCC(C)C)n1` [Compound 13b, 2,4-diisobutylamino-6-isoamylpyrimidine], for which the inhibitory constant (Ki) in series [5] is 29 µM. For the same molecule, in series [4], the “Mechanism-based inhibition of ERβ” value is “no mechanism-based inhibition of ERβ”.

B1: unlabeled peptide containing the NR Box II (LXXLL motif) of SRC-1 (peptide)
chain: LTERHKILHRLLQEGSPSD
On to B1, for which the inhibition constant (Ki) in series [6] was determined as 0.066 µM.
